Laboratory results: US20170334877A1, “REVAPRAZAN HYDROCHLORIDE POLYMORPHS AND PREPARATION METHOD THEREFOR” (JIANGSU TASLY DIYI PHARMACEUTICAL CO., LTD., priority 2014, published 2017)
Structures can show the parent of a compound that is named as a salt. Values belong to the molecule of their own block, whether it stands above or below them.

What was measured:
Format in all cases: physicochemical
[1] = High humidity test (25° C., relative humidity 75±5%); conditions: for Appearance color / Purity (%) / Relevant substances / Weight gain upon moisture absorption (%): 25° C., RH 75±5%; for Weight gain upon moisture absorption (in words): high humidity condition; for Stability (conclusion in words): high humidity, no obvious changes in appearance color, purity, relevant substances
Description: Revaprazan hydrochloride crystalline form I is placed in an incubator of 25° C. (relative humidity of 75±5%), and is sampled on the 5th day and 10th day for detection. Revaprazan hydrochloride crystalline form II is placed in an incubator of 25° C. (relative humidity of 75±5%), and is sampled on the 5th day and 10th day for detection. Revaprazan hydrochloride polymorph III is placed in an incubator of 25° C. (relative humidity of 75±5%), and is sampled on the 5th day and the 10th day for detection. Revaprazan hydrochloride crystalline form IV is placed in an incubator of 25° C. Revaprazan hydrochloride crystal form 4 is placed in an incubator of 25° C. (the relative humidity is 75±5%), and is sampled on the 5th day and the 10th day for detection.

[2] = High temperature test (60° C. incubator); conditions: for Appearance color / Loss on drying (%) / Purity (%) / Relevant substances: 60° C., hydrochloride; for Stability (conclusion in words): high temperature, no obvious changes in appearance color, loss on drying, purity, relevant substances
Description: Revaprazan hydrochloride crystalline form I is placed in a 60° C. incubator, and is sampled on the 5th day and 10th day for detection, and the results are shown in Table 2. Revaprazan hydrochloride crystalline form II is placed in a 60° C. incubator, and is sampled on the 5th day and 10th day for detection, and the results are shown in Table 6. Revaprazan hydrochloride polymorph III is placed in an incubator of 60° C., and is sampled on the 5th day and the 10th day for detection. Revaprazan hydrochloride crystalline form IV is placed in an incubator of 60° C., and is sampled on the 5th day and the 10th day for detection. Revaprazan hydrochloride crystal form 4 is placed in an incubator of 60° C.; and is sampled on the 5th day and the 10th day for detection, and the results are shown in Table 23.

[3] = Accelerated test (40±2° C., relative humidity 75±5%, 6 months, sealed polyethylene film bag); conditions: for Appearance color / Purity (%) / Relevant substances: 40±2° C., RH 75±5%; for Purity (%) / Relevant substances: hydrochloride; for Stability (conclusion in words): accelerated test, no obvious changes in appearance color, purity, relevant substances
Description: Revaprazan hydrochloride crystalline form I is sealed in a polyethylene film bag, is placed for 6 months under the conditions that the temperature is 40±2° C. and the relative humidity is 75±5%, and is respectively sampled at the end of the 1st Month, the 2nd Month, the 3rd Month and the 6^thMonth for detection; and the results are shown in Table 4. Revaprazan hydrochloride crystalline form II is sealed in a polyethylene film bag and is placed for 6 months under the conditions that the temperature is 40±2° C. and the relative humidity is 75±5%, and is respectively sampled at the end of the 1st Month, the 2nd Month, the 3rd Month and the 6th Month for detection; and the results are shown in Table 8. Revaprazan hydrochloride crystalline form III is sealed in a polyethylene film bag, is placed for 6 months under the conditions that the temperature is 40±2° C. and the relative humidity is 75±5%, and is sampled at the end of the 1st Month, the 2nd Month, the 3rd Month and the 6th Month for detection. Revaprazan hydrochloride crystalline form IV is sealed in a polyethylene film bag, is placed for 6 months under the conditions that the temperature is 40±2° C. and the relative humidity is 75±5%, and is sampled at the end of the 1st Month, the 2nd Month, the 3rd Month and the 6th Month for detection. Revaprazan hydrochloride crystalline form V is sealed in a polyethylene film bag and is placed for 6 months under the condition that the temperature is 40±2° C. and the relative humidity is 75±5%, and is sampled at the end of the 1st month, the 2nd month, the 3rd month and the 6th month for detection, and the results are shown in Table 20.

[4] = Light illumination test (intense light, 4500±500 Lx); conditions: for Stability (conclusion in words): intense light illumination, no obvious changes in appearance color, loss on drying, purity, relevant substances; for Appearance color / Loss on drying (%) / Purity (%) / Relevant substances: light 4500±500 Lx; for Loss on drying (%) / Purity (%) / Relevant substances: hydrochloride
Description: Revaprazan hydrochloride crystalline form I is irradiated under such a condition that the light intensity is 4500±500 Lx, and is sampled on the 5th day and 10th day for detection, and the results are shown in Table 1. Revaprazan hydrochloride crystalline form II is irradiated under the condition that the light intensity is 4500±500Lx, and is sampled on the 5th day and 10th day for detection. Revaprazan hydrochloride polymorph III is irradiated under such a condition that the light intensity is 4500±500Lx, and is sampled on the 5th day and 10th day for detection. Revaprazan hydrochloride […] is irradiated under such a condition that the light intensity is 4500±500Lx, and is sampled on the 5th day and the 10th day for detection. Revaprazan hydrochloride crystalline form V is irradiated under the light intensity condition of 4500±500Lx; and is sampled on the 5th day and 10th day for detection.

[5] = 5th day, listed as revaprazan hydrochloride polymorph III
[6] = 10th day, listed as revaprazan hydrochloride polymorph III
[7] = Day 0, listed as revaprazan hydrochloride polymorph III

Appearance color ([1]; 5th day): White powder
Purity (%) ([1]; 5th day, hydrochloride): 99.92%
Relevant substances ([1]; 5th day, hydrochloride): Undetected
Weight gain upon moisture absorption (%) ([1]; 5th day, hydrochloride): 0.47%
Appearance color ([1]; 10th day): White powder
Purity (%) ([1]; 10th day, hydrochloride): 99.94%
Relevant substances ([1]; 10th day, hydrochloride): Undetected
Weight gain upon moisture absorption (%) ([1]; 10th day, hydrochloride): 0.59%
Appearance color ([1]; Day 0): White powder
Weight gain upon moisture absorption (%) ([1]; Day 0): 0%
Purity (%) ([1]; Day 0, hydrochloride): 99.95%
Relevant substances ([1]; Day 0, hydrochloride): Undetected
Weight gain upon moisture absorption (in words) [1]: slight weight gain
Stability (conclusion in words) [1]: stable
Appearance color [2, 5]: White powder
Loss on drying (%) [2, 5]: 0.26%
Purity (%) [2, 5]: 99.94%
Relevant substances [2, 5]: Undetected
Appearance color [2, 6]: White powder
Loss on drying (%) [2, 6]: 0.26%
Purity (%) [2, 6]: 99.92%
Relevant substances [2, 6]: Undetected
Appearance color [2, 7]: White powder
Loss on drying (%) [2, 7]: 0.22%
Purity (%) [2, 7]: 99.95%
Relevant substances [2, 7]: Undetected
Stability (conclusion in words) [2]: stable
Appearance color ([3]; 1st month): White powder
Purity (%) ([3]; 1st month): 99.92%
Relevant substances ([3]; 1st month): Undetected
Appearance color ([3]; 2nd month): White powder
Purity (%) ([3]; 2nd month): 99.91%
Relevant substances ([3]; 2nd month): Undetected
Appearance color ([3]; 3rd month): White powder
Purity (%) ([3]; 3rd month): 99.93%
Relevant substances ([3]; 3rd month): Undetected
Appearance color ([3]; 6th month): White powder
Purity (%) ([3]; 6th month): 99.95%
Relevant substances ([3]; 6th month): Undetected
Appearance color ([3]; Month 0): White powder
Purity (%) ([3]; Month 0): 99.95%
Relevant substances ([3]; Month 0): Undetected
Stability (conclusion in words) [3]: stable
Stability (conclusion in words) [4]: stable
Appearance color ([4]; 5th day): White powder
Loss on drying (%) [4, 5]: 0.25%
Purity (%) [4, 5]: 99.92%
Relevant substances [4, 5]: Undetected
Appearance color ([4]; 10th day): White powder
Loss on drying (%) [4, 6]: 0.29%
Purity (%) [4, 6]: 99.95%
Relevant substances [4, 6]: Undetected
Appearance color ([4]; Day 0): White powder
Loss on drying (%) [4, 7]: 0.28%
Purity (%) [4, 7]: 99.95%
Relevant substances [4, 7]: Undetected
SMILES: Cc1nc(Nc2ccc(F)cc2)nc(N2CCc3ccccc3C2C)c1C (single isomer, unassigned) [revaprazan hydrochloride crystalline form III]

Appearance color ([1]; 5th day): White powder
Purity (%) ([1]; 5th day, hydrochloride): 99.93%
Relevant substances ([1]; 5th day, hydrochloride): Not detected
Weight gain upon moisture absorption (%) ([1]; 5th day, hydrochloride): 0.42%
Appearance color ([1]; 10th day): White powder
Purity (%) ([1]; 10th day, hydrochloride): 99.95%
Relevant substances ([1]; 10th day, hydrochloride): Not detected
Weight gain upon moisture absorption (%) ([1]; 10th day, hydrochloride): 0.64%
Appearance color ([1]; Day 0): White powder
Weight gain upon moisture absorption (%) ([1]; Day 0): 0%
Purity (%) ([1]; Day 0, hydrochloride): 99.94%
Relevant substances ([1]; Day 0, hydrochloride): Not detected
Weight gain upon moisture absorption (in words) [1]: slight weight gain
Stability (conclusion in words) [1]: stable
Appearance color ([2]; 5th day): White
Loss on drying (%) ([2]; 5th day): 0.27%
Purity (%) ([2]; 5th day): 99.97%
Relevant substances ([2]; 5th day): Not detected
Appearance color ([2]; 10th day): White
Loss on drying (%) ([2]; 10th day): 0.29%
Purity (%) ([2]; 10th day): 99.95%
Relevant substances ([2]; 10th day): Not detected
Appearance color ([2]; Day 0): White
Loss on drying (%) ([2]; Day 0): 0.23%
Purity (%) ([2]; Day 0): 99.94%
Relevant substances ([2]; Day 0): Not detected
Stability (conclusion in words) [2]: stable
Appearance color ([3]; 1st month): White powder
Purity (%) ([3]; 1st month): 99.93%
Appearance color ([3]; 2nd month): White powder
Purity (%) ([3]; 2nd month): 99.95%
Appearance color ([3]; 3rd month): White powder
Purity (%) ([3]; 3rd month): 99.96%
Appearance color ([3]; 6th month): White powder
Purity (%) ([3]; 6th month): 99.95%
Appearance color ([3]; Month 0): White powder
Purity (%) ([3]; Month 0): 99.94%
Stability (conclusion in words) [3]: stable
Stability (conclusion in words) [4]: stable
Appearance color ([4]; 5th day): White powder
Loss on drying (%) ([4]; 5th day): 0.26%
Purity (%) ([4]; 5th day): 99.97%
Relevant substances ([4]; 5th day): Not detected
Appearance color ([4]; 10th day): White powder
Loss on drying (%) ([4]; 10th day): 0.28%
Purity (%) ([4]; 10th day): 99.94%
Relevant substances ([4]; 10th day): Not detected
Appearance color ([4]; Day 0): White powder
Loss on drying (%) ([4]; Day 0): 0.25%
Purity (%) ([4]; Day 0): 99.94%
Relevant substances ([4]; Day 0): Not detected
SMILES: Cc1nc(Nc2ccc(F)cc2)nc(N2CCc3ccccc3C2C)c1C (single isomer, unassigned) [revaprazan hydrochloride crystalline form II]
